Data as given in patent US20210381051A1, “DNA METHYLATION BIOMARKER OF AGING FOR HUMAN EX VIVO AND IN VIVO STUDIES” (The Regents of the University of California, priority 2018, published 2021).

Key:
[1] = test system: primary human keratinocytes; test: Keratinocyte proliferation rate and proliferative capacity (population doublings); type: cell-based; settings: rapamycin 25 nM, Y-27632 1 μM
Source text: The availability of an epigenetic clock, such as the skin & blood clock, which is applicable to cultured cells, allows epigenetic ageing to be studied beyond the purely descriptive nature afforded by epidemiological analyses alone. Towards this end, we have established in vitro epigenetic ageing systems using primary human cells. One of this is based on primary keratinocytes that are derived from healthy human skins. […] The opposing effects of these compounds on keratinocyte proliferation present us with the opportunity to test whether cellular proliferation rate impacts epigenetic ageing while carrying out our primary aim of interrogating the effects of rapamycin on epigenetic ageing.
(§1) Primary keratinocytes were isolated from human neonatal foreskins from three donors (Donor A, B and C) and were put in culture with standard media or media supplemented with rapamycin, Y-27632 or a cocktail of both of these compounds (methods). The cells were passaged continually and population doublings at each passage recorded. […] DNA methylation profiles from a selection of passages of these cells were obtained and analysed with the skin & blood clock. […]
(§2) Primary human neonatal fibroblasts were isolated from circumcised foreskins. […] Upon confluence, cells were trypsinised, counted and 100,000 were seeded into fresh fibronectin/collagen-coated plates. […]

[2] = test system: primary human keratinocytes from neonatal foreskins; test: Ex vivo human cell aging assay: DNAm age of cultured keratinocytes by the skin & blood clock; type: cell-based
Source text: (§3) FIG. 6. Ex vivo study of compounds that may accelerate or decelerate epigenetic aging. A) Effect of Y-27632 and rapamycin treatment on neonatal keratinocytes measured by the skin & blood clock. B) Effect of oestrogen on neonatal dermal fibroblasts.
(§4) By its ability to quantitatively track aging of human cells ex vivo, the skin & blood clock lends itself to be used in the development of an ex vivo human cell aging assay that can be used for testing and screening compounds with anti-aging or pro-aging effects.
as §1, with “recorded. In time all cells, regardless of donor or treatment underwent replicative senescence, where they ceased to increase their numbers after at least 2 weeks in culture with regular replenishment of media.” for “recorded.”
as §2

HGPS patients = settings: after 2.2 years of follow-up, 27% death in the matched untreated group; cited from earlier work
[3] = test system: progerin accumulation in HGPS cells; settings: in vitro studies [41, 42]; cited from earlier work
[4] = test system: neonatal dermal fibroblasts; test: Ex vivo epigenetic aging of fibroblasts by the skin & blood clock; type: cell-based, human; settings: suggestive evidence
Source text: as §3, §4

## C[C@@H](N)[C@H]1CC[C@H](C(=O)Nc2ccncc2)CC1 [Y-27632]
[1]
  cellular proliferation rate (population doublings per unit of time): increases it
[2]; Example 1, dividing / neonatal keratinocytes, suggestive evidence
  epigenetic aging (skin & blood clock), FIG. 6A: appears to increase epigenetic aging
[2]; Example 2, neonatal foreskin keratinocytes of three donors, CnT-07 medium, rapamycin 25 nM, Y-27632 1 μM, present for the entire duration
  epigenetic ageing (skin & blood clock): did not impose any appreciable effect

## NC(=O)N1CCC(CC(=O)N2CCC([C@H]3c4ncc(Br)cc4CCc4cc(Cl)cc(Br)c43)CC2)CC1 [lonafarnib]
HGPS patients
  death in the treated group: 6.3%

## CN(C)C(=N)N=C(N)N [metformin]
[3]
  progerin accumulation and cellular HGPS phenotypes: reduction of progerin accumulation

## estrogen
[4]
  epigenetic aging (skin & blood clock), FIG. 6B: associated with slower epigenetic aging
